Laboratory results published in US12227500B2, “Substituted pyrrolo[2,3-b]pyridines for suppressing toxic endoplasmic reticulum stress” (THE TRUSTEES OF COLUMBIA UNIVERSITY IN THE CITY OF NEW YORK, priority 2018, dated 2025).
Read-outs that look alike come from different tables or passages of the source.

Legend:
[1] = test system: human ES motor neurons carrying the ALS-causing SOD1^A4V mutation; assay: cells; assay type: cell-based; details: 72 h, 72 h; for EC50 / Emax: CPA 33 μM; for EC50: read-out: EC50; for Emax: read-out: Emax (MN survival % untreated); for viability at 1 µM: CPA (33 μM) + compound (1 μM), read-out: Motor Neuron Survival, % untreated
Method: Next, survival assays were performed with all the analogs at once to generate a low-variability dataset. All compounds were evaluated at concentrations ranging from 0.1-3.0 μM (five-point dilution) in three technical replicates and two biological replicates.

[2] = target: T1, panel of 60 human kinases (Homo sapiens, UniProt O14965); assay: Radiolabeled ATP kinase assay, panel of 60 kinases (Table S5); assay type: biochemical; details: Aurora A; 0.1 μM; 10 μM ATP; read-out: % Enzyme Activity (relative to DSMO controls)
T1 construct: purchased Reaction Biology Corp
T1 sequence (O14965 1-403): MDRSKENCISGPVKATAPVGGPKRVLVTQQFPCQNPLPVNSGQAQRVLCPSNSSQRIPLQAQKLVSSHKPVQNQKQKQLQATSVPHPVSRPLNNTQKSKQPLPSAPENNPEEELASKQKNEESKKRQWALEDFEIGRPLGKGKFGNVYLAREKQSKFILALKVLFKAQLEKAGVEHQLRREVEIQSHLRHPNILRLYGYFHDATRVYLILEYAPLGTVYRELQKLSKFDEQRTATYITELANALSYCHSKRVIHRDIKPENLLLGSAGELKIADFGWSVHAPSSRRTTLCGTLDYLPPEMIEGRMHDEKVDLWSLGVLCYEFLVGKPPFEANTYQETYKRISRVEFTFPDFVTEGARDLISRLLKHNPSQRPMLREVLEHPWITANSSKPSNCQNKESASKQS
Method: (§1) To better understand the biologically relevant targets of compound 1 and its analogs, a second round of cell-free kinase assays was performed. In this expanded assay, we selected ten analogs ranging from moderately to very strongly protective in the CPA assay. These analogs were evaluated for their ability to inhibit a selection of 60 kinases at 0.1 μM and 0.5 μM. […] RNAseq data were used to confirm the expression of each kinase in ES MNs (see Example 12).
(§2) RNAseq data were used to confirm the expression of each kinase in ES motor neurons (see Example 12).

[3] = target: T2, panel of 60 human kinases (Homo sapiens, UniProt P00519); assay: as above; assay type: biochemical; details: ABL1; 0.1 μM; 10 μM ATP; read-out: % Enzyme Activity (relative to DSMO controls)
T2 construct: purchased Reaction Biology Corp
T2 sequence (P00519 whole entry): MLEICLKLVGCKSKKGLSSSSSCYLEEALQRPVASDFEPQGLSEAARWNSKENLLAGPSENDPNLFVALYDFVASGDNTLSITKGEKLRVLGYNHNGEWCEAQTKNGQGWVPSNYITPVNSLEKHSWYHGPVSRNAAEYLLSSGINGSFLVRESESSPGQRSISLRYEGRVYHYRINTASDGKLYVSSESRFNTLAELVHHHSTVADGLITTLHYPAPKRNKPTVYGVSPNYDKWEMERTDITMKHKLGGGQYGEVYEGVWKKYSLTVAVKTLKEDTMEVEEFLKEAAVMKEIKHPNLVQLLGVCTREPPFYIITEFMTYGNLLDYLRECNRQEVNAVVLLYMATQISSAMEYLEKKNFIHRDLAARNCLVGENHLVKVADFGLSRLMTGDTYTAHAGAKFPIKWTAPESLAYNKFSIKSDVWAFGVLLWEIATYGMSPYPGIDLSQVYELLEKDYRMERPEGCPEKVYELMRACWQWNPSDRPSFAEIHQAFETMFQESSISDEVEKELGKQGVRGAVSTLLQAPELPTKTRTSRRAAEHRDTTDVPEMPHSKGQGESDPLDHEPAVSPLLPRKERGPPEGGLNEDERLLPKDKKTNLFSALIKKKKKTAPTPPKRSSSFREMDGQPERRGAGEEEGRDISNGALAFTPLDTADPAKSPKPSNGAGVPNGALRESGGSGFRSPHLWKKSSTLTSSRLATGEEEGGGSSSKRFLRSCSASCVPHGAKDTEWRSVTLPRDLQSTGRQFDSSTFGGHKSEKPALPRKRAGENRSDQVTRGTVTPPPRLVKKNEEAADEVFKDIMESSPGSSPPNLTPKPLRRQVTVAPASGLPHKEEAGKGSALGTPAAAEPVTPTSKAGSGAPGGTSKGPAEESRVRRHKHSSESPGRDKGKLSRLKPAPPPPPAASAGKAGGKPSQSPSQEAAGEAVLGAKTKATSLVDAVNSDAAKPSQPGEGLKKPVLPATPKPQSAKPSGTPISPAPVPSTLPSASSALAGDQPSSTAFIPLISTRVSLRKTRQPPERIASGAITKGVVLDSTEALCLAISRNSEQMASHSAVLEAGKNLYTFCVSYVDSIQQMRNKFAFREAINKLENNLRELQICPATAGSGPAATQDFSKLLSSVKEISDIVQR
Method: as §1, §2

[4] = target: T3, panel of 60 human kinases (Homo sapiens, UniProt P22607); assay: as above; assay type: biochemical; details: FGFR3; 0.1 μM; 10 μM ATP; read-out: % Enzyme Activity (relative to DSMO controls)
T3 construct: purchased Reaction Biology Corp
T3 sequence (P22607 23-806): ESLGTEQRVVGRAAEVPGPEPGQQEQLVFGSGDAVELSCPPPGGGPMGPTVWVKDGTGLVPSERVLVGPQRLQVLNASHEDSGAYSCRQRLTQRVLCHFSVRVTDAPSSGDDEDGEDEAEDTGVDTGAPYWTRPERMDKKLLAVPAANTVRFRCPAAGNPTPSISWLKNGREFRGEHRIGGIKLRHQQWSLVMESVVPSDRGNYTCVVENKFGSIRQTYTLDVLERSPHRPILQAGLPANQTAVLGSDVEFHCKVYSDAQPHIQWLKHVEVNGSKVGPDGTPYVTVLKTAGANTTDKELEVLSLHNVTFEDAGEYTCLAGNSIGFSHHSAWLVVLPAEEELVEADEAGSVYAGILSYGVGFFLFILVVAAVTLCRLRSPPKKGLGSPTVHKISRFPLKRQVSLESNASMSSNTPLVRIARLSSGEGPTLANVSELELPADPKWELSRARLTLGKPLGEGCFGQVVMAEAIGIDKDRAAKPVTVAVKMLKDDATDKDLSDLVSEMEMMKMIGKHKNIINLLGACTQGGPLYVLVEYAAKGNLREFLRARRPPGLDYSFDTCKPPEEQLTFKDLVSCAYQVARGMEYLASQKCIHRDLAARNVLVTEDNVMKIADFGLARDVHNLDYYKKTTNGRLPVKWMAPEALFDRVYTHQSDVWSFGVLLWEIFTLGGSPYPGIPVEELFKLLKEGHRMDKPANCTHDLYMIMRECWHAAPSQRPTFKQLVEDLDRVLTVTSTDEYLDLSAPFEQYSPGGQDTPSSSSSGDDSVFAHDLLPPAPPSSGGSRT
Method: as §1, §2

[5] = target: T4, panel of 60 human kinases (Homo sapiens, UniProt P42684); assay: as above; assay type: biochemical; details: ABL2/ARG; 0.1 μM; 10 μM ATP; read-out: % Enzyme Activity (relative to DSMO controls)
T4 construct: purchased Reaction Biology Corp
Method: as §1, §2

[6] = target: T5, panel of 60 human kinases (Homo sapiens, UniProt P49759); assay: as above; assay type: biochemical; details: CLK1; 0.1 μM; 10 μM ATP; read-out: % Enzyme Activity (relative to DSMO controls)
T5 construct: purchased Reaction Biology Corp
T5 sequence (P49759 whole entry): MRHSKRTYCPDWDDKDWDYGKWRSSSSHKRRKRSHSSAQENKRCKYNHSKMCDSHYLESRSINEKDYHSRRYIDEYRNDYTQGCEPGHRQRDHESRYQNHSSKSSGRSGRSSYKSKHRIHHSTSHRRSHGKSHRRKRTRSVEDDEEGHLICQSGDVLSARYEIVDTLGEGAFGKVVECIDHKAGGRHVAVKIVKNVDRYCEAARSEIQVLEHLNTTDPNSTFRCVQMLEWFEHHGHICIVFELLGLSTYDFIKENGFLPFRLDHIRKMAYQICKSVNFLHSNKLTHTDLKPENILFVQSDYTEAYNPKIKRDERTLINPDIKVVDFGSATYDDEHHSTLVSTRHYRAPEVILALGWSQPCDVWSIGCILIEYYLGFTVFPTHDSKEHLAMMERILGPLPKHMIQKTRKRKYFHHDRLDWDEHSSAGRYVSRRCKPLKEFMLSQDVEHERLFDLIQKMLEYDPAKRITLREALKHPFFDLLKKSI
Method: as §1, §2

[7] = target: T6, panel of 60 human kinases (Homo sapiens, UniProt P53779); assay: as above; assay type: biochemical; details: JNK3; 0.1 μM; 10 μM ATP; read-out: % Enzyme Activity (relative to DSMO controls)
T6 construct: purchased Reaction Biology Corp
T6 sequence (P53779 whole entry): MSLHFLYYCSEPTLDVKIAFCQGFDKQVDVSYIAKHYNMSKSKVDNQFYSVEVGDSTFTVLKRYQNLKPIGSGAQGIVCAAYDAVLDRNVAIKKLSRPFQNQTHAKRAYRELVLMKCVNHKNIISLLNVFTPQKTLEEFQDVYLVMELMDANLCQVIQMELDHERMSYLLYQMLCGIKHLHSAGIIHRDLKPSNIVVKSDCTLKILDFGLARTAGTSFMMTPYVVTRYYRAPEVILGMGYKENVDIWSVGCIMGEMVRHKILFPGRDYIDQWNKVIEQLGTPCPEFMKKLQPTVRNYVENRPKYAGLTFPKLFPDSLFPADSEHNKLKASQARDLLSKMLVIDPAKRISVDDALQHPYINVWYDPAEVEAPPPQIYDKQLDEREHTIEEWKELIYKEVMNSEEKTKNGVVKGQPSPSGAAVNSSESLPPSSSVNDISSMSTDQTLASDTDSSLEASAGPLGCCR
Method: as §1, §2

[8] = target: T7, panel of 60 human kinases (Homo sapiens, UniProt Q16288); assay: as above; assay type: biochemical; details: TRKC; 0.1 μM; 10 μM ATP; read-out: % Enzyme Activity (relative to DSMO controls)
T7 construct: purchased Reaction Biology Corp
T7 sequence (Q16288 32-839): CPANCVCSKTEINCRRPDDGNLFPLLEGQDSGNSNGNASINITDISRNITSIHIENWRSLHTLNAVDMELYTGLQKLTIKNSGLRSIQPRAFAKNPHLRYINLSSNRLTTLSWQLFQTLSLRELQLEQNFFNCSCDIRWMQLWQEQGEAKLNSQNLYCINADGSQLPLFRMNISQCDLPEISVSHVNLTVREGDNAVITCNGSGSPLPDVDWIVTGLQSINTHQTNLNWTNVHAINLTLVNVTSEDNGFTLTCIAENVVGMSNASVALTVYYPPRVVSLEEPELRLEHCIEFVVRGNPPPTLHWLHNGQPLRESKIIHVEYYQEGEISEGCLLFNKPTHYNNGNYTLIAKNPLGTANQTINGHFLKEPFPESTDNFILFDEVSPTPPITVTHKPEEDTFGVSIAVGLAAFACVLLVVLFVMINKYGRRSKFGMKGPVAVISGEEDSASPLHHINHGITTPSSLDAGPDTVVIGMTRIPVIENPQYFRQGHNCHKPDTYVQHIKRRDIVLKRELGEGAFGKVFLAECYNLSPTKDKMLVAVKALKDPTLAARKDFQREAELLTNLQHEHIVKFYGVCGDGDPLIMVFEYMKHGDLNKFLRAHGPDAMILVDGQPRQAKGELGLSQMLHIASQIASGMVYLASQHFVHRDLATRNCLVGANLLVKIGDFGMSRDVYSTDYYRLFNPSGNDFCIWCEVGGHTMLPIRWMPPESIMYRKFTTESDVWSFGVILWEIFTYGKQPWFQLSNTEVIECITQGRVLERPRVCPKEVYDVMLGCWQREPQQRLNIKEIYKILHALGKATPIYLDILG
Method: as §1, §2

[9] = target: T8, panel of 60 human kinases (Homo sapiens, UniProt Q92630); assay: as above; assay type: biochemical; details: DYRK2; 0.1 μM; 10 μM ATP; read-out: % Enzyme Activity (relative to DSMO controls)
T8 construct: purchased Reaction Biology Corp
T8 sequence (Q92630 1-601): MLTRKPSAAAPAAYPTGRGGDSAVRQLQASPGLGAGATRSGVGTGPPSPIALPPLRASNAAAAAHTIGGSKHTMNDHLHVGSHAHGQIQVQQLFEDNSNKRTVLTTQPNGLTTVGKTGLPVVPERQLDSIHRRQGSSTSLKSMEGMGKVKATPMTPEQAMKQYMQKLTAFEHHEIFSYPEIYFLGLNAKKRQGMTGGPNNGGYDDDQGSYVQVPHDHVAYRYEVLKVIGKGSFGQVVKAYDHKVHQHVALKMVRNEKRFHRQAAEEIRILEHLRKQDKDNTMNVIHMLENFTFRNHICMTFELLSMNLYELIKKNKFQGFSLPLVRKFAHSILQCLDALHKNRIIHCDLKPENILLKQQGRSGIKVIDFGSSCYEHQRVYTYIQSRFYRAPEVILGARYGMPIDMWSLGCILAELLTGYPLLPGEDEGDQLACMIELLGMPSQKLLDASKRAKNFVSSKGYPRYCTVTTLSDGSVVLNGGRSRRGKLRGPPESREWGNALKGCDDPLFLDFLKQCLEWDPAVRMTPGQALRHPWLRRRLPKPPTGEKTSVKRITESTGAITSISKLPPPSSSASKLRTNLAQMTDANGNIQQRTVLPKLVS
Method: as §1, §2

[10] = target: T9, panel of 60 human kinases (Homo sapiens, UniProt Q9UKE5); assay: as above; assay type: biochemical; details: TNIK; 0.1 μM; 10 μM ATP; read-out: % Enzyme Activity (relative to DSMO controls)
T9 construct: purchased Reaction Biology Corp
T9 sequence (Q9UKE5 whole entry): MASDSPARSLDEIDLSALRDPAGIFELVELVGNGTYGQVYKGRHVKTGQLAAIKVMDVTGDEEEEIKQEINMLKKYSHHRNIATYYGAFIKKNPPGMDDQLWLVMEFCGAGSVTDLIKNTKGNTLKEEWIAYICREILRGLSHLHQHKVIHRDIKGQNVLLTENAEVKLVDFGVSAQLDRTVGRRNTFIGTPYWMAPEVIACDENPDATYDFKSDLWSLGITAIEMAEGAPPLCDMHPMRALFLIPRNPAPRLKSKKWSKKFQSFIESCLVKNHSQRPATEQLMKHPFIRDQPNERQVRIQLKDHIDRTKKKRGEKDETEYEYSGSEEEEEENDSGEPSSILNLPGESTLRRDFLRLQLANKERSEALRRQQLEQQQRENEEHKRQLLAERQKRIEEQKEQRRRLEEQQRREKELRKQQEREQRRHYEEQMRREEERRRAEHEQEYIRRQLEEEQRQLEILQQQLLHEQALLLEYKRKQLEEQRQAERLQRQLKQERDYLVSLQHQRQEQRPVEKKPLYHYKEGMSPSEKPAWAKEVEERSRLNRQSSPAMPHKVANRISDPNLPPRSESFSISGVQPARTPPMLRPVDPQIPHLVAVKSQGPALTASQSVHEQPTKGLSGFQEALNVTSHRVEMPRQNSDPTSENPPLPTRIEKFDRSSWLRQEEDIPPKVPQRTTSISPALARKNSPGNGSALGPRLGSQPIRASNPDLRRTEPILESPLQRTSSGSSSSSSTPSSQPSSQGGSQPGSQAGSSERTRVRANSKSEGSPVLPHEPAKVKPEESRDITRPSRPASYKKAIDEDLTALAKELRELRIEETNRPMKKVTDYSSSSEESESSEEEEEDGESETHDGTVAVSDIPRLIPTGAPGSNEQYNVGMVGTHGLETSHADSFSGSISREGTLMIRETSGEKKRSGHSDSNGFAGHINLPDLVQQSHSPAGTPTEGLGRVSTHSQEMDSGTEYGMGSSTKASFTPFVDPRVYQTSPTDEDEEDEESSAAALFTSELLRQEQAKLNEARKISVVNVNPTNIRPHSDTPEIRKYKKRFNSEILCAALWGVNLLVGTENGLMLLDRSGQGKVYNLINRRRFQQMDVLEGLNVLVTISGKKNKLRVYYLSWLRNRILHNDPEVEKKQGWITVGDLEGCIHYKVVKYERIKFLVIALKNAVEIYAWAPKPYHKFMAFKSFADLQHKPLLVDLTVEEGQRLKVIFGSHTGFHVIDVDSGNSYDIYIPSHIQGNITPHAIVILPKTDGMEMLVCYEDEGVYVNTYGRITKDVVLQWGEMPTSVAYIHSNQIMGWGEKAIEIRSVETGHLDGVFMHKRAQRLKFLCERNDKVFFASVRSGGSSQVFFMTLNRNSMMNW
Method: as §1, §2

[11] = target: T10, panel of 60 human kinases (Homo sapiens, UniProt Q9UM73); assay: as above; assay type: biochemical; details: ALK; 0.1 μM; 10 μM ATP; read-out: % Enzyme Activity (relative to DSMO controls)
T10 construct: purchased Reaction Biology Corp
Method: as §1, §2

Row | SMILES | EC50 ([1]; Homo sapiens, Neuron) [µM] | Emax ([1]; Homo sapiens, Neuron) [%] | remaining activity at 0.1 µM [2] [%] | remaining activity at 0.1 µM [3] [%] | remaining activity at 0.1 µM [4] [%] | remaining activity at 0.1 µM [5] [%] | remaining activity at 0.1 µM [6] [%] | remaining activity at 0.1 µM [7] [%] | remaining activity at 0.1 µM [8] [%] | remaining activity at 0.1 µM [9] [%] | remaining activity at 0.1 µM [10] [%] | remaining activity at 0.1 µM [11] [%] | viability at 1 µM ([1]; Homo sapiens, Neuron) [%] | EC50 [1] [µM]
1 | Cc1nn(C)c(C)c1-c1c[nH]c2ncc(-c3ccc(CN4CCN(C)CC4)cc3)cc12 [Compound 7ai, 5-(4-((4-Methylpiperazin-1-yl)methyl)phenyl)-3-(1,3,5-trimethyl-1H-pyrazol-4-yl)-1H-pyrrolo[2,3-b]pyridine] | 3.23 | 86.5 | 95.5 | 26.3 | 82 | 44.4 | 66.4 | 107 | 13.1 | 66.5 | 1.35 | 76.2 |  | 
2 | COc1ccccc1-c1c[nH]c2ncc(-c3ccc(CN4CCN(C)CC4)cc3)cc12 [Compound 7at, 3-(2-Methoxyphenyl)-5-(4-((4-methylpiperazin-1-yl)methyl)phenyl)-1H-pyrrolo[2,3-b]pyridine] | 0.297 | 85 | 90.2 | 19 | 82.1 | 21.8 | 78.4 | 104 | 34.8 | 96.8 | 2.2 | 77.8 | 67.5 | 
3 | CN1CCN(Cc2ccc(-c3cnc4[nH]cc(-c5ccc6[nH]ccc6c5)c4c3)cc2)CC1 [Compound 1, 3-(1H-Indol-5-yl)-5-(4-((4-methylpiperazin-1-yl)methyl)phenyl)-1H-pyrrolo[2,3-b]pyridine, reference compound] | 0.215 | 102 | 81.4 | 46.6 | 43.5 | 54.9 | 33 | 122 | 6.69 | 44 | 3 | 25.4 | 102 | 
4 | CN1CCN(Cc2ccc(-c3cnc4[nH]cc(-c5cnn(Cc6ccccc6)c5)c4c3)cc2)CC1 [Compound 7ah, 3-(1-Benzyl-1H-pyrazol-4-yl)-5-(4-((4-methylpiperazin-1-yl)methyl)phenyl)-1H-pyrrolo[2,3-b]pyridine] | 0.234 | 67.1 | 48.4 | 81 | 76.6 | 95.1 | 3.41 | 81.8 | 9.83 | 59.3 | 0.96 | 28.8 | 67.1 | 
5 | OCCN1CCN(Cc2ccc(-c3cnc4[nH]cc(-c5cccc(Cl)c5)c4c3)cc2)CC1 [Compound 12k, 2-(4-(4-(3-(3-Chlorophenyl)-1H-pyrrolo[2,3-b]pyridin-5-yl)benzyl)piperazin-1-yl)ethan-1-ol] | 0.099 | 112 |  |  |  |  |  |  |  |  |  |  |  | 0.1
6 | CN1CCN(Cc2ccc(-c3cnc4[nH]cc(-c5ccc6c(c5)OCCO6)c4c3)cc2)CC1 [Compound 7d, 3-(2,3-Dihydrobenzo[b][1,4]dioxin-6-yl)-5-(4-((4-methylpiperazin-1-yl)methyl)phenyl)-1H-pyrrolo[2,3-b]pyridine] | 0.327 | 72.9 | 74.8 | 74.5 | 73.4 | 72.7 | 1.66 | 120 | 17.7 | 8.19 | 12.1 | 73.8 | 72.9 | 
7 | CN1CCN(Cc2ccc(-c3cnc4[nH]cc(-c5ccoc5)c4c3)cc2)CC1 [Compound 7w, 3-(Furan-3-yl)-5-(4-((4-methylpiperazin-1-yl)methyl)phenyl)-1H-pyrrolo[2,3-b]pyridine] | 1.37 | 0.42 | 83.9 | 64.8 | 70.7 | 77.6 | 81.9 | 113 | 25.8 | 90.4 | 0.45 | 89.7 | 46.6 | 
8 | CN1CCN(Cc2ccc(-c3cnc4[nH]cc(-c5cccc(Cl)c5)c4c3)cc2)CC1 [Compound 7ad, 3-(3-Chlorophenyl)-5-(4-((4-methylpiperazin-1-yl)methyl)phenyl)-1H-pyrrolo[2,3-b]pyridine] | 0.285 | 87.7 | 97.3 | 77.3 | 70.1 | 83.7 | 81.2 | 106 | 51.2 | 69.7 | 0.68 | 108 | 87.7 | 
9 | CN1CCN(Cc2ccc(-c3cnc4[nH]cc(-c5ccncc5)c4c3)cc2)CC1 [Compound 7n, 5-(4-((4-Methylpiperazin-1-yl)methyl)phenyl)-3-(pyridin-4-yl)-1H-pyrrolo[2,3-b]pyridine] | 0.483 | 36.3 | 96.4 | 88.4 | 85.9 | 91.5 | 34.9 | 115 | 25.4 | 63.6 | 6.7 | 94.1 | 36.3 | 
